Experiments:
[1] = test system: Tyk2-pSTAT4 (IL-12 induced pSTAT4); experiment: IL-12 induced pSTAT4 in human PBMC; format: cell-based; conditions: Homo sapiens, PBMC, 0.5 h, 1.7 ng/mL IL-12, 30 minutes
Outline: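 pSTAT4 and total STAT4 quantified by MSD in cell lysates after 30 minutes of 1.7 ng/mL IL-12 stimulation. Beforehand, compound (0.1% DMSO final) sat 1 hr at 37 C on 200,000 thawed buffy-coat PBMC per well in serum-containing medium.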

JAK2 = JAK2 (Homo sapiens (Human), UniProt O60674); experiment: JAK2 radioactive kinase assay; format: biochemical; conditions: ATP 10 μM
Sequence of JAK2 (O60674 whole entry): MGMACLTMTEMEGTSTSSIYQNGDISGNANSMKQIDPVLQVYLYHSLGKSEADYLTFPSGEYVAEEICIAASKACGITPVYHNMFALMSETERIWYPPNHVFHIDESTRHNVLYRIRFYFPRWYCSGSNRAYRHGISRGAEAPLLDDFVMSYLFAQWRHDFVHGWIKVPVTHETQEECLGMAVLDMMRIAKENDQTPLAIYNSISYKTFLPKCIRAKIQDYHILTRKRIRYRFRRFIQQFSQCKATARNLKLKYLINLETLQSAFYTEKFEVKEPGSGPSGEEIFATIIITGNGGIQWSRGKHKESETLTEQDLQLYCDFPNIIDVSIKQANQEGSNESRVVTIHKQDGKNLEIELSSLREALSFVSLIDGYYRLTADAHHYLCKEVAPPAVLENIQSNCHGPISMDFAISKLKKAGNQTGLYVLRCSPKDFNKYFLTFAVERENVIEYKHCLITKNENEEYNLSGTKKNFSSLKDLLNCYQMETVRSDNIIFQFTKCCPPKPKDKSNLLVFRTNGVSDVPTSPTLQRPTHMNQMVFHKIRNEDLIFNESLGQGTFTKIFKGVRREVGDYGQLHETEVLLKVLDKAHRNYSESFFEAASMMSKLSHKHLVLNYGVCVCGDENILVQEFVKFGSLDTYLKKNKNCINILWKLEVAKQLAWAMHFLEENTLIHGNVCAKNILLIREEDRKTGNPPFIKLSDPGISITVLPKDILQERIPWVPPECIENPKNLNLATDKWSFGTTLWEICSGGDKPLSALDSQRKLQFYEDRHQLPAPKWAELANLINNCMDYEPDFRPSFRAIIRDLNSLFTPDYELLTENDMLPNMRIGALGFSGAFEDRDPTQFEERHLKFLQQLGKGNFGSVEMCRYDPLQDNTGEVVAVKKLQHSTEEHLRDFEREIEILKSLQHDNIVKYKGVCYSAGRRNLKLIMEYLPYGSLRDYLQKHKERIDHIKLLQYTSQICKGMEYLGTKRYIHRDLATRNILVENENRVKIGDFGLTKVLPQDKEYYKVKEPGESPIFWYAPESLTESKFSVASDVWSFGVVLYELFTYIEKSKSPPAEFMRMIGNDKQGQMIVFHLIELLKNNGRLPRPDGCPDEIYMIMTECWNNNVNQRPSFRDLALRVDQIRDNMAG
Outline: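 Radiometric assay in Hepes pH 7.5, MgCl2, EGTA, Brij35, BSA, DTT, 1% DMSO, with 10 μM [33P]ATP, 120 min at room temp; P81 paper capture and counting. […]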

TYK2 = TYK2 (Homo sapiens (Human), UniProt P29597); experiment: Tyk2 radioactive kinase assay; format: biochemical; conditions: ATP 10 μM
Sequence of TYK2 (P29597 whole entry): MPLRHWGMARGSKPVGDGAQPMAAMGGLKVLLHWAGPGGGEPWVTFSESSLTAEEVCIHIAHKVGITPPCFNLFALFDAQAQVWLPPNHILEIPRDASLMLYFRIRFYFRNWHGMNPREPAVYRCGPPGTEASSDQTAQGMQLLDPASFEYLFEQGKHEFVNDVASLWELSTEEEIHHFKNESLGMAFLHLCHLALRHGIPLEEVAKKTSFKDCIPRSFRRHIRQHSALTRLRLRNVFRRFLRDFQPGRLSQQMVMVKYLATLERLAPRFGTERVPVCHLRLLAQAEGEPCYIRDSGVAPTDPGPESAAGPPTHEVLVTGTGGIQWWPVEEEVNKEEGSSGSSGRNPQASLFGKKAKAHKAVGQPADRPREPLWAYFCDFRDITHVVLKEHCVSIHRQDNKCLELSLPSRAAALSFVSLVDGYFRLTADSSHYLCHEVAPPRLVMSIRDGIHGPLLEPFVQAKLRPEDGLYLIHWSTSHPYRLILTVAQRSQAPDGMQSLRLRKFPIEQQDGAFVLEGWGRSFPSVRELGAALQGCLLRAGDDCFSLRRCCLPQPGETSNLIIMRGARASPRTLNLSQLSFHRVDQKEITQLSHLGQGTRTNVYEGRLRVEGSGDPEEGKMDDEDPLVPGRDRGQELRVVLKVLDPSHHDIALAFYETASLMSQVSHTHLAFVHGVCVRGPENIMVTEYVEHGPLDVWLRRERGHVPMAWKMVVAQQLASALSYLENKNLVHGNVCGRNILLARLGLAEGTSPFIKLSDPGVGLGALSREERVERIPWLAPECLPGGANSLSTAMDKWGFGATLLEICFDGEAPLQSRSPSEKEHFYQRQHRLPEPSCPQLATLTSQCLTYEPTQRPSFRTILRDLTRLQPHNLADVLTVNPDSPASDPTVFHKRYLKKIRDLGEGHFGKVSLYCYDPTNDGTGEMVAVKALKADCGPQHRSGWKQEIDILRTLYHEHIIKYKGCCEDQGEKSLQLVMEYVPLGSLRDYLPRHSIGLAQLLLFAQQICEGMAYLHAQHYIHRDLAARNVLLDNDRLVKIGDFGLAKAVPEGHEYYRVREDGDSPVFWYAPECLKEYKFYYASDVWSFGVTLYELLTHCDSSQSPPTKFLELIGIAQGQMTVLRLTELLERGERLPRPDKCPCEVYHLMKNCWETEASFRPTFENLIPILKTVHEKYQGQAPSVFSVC
Outline: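 Recombinant human TYK2 (Invitrogen) was mixed with 20 μM peptide substrate in a buffer of 20 mM Hepes pH 7.5, 10 mM MgCl2, 1 mM EGTA, 0.02% Brij35, 0.02 mg/mL BSA, 0.1 mM […], 2 mM DTT and 1% DMSO, and compounds in DMSO were added. Adding ^33P-ATP (10 μM ATP) started the reaction, which ran 120 min at room temperature. Mixtures were then spotted onto P81 ion-exchange paper, washed thoroughly in 0.75% phosphoric acid, and counted for radioactivity.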

[2] = test system: JAK2-pSTAT5 (GM-CSF induced pSTAT5); experiment: GM-CSF induced pSTAT5 in human PBMC; format: cell-based; conditions: Homo sapiens, PBMC, 20 min, 5 ng/mL GM-CSF
Outline: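 Thawed human PBMC, 200,000 per well in serum-containing medium, were preincubated 1 hr at 37 C with compound in 0.1% DMSO. GM-CSF at 5 ng/mL final was added for 20 minutes, then pSTAT5 and total STAT5 in lysates were measured by MSD immunoassay.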

Compound | EC50 [1] | Ki (JAK2) | Ki (TYK2) | EC50 [2]
N#Cc1cccc(F)c1-c1cc(-n2ccc(N3CCC[C@H](C(=O)N4CCCC4)C3)n2)c2c(n1)CNC2=O [I-168, (S)-3-fluoro-2-(5-oxo-4-(3-(3-(pyrrolidine-1-carbonyl)piperidin-1-yl)-1H-pyrazol-1-yl)-6,7-dihydro-5H-pyrrolo[3,4-b]pyridin-2-yl)benzonitrile] | 100 to 2000 nM | 0.1 to 10 nM | 0.1 to 10 nM | 100 to 2000 nM
[2H]C1([2H])CC(O)(C([2H])([2H])[2H])C([2H])([2H])N1c1ccn(-c2cc(-c3c(F)cccc3C#N)nc3c2C(=O)NC3)n1 (centres unmarked) [I-170, 3-fluoro-2-(4-(3-(3-hydroxy-3-(methyl-d3)pyrrolidin-1-yl-2,2,5,5-d4)-1H-pyrazol-1-yl)-5-oxo-6,7-dihydro-5H-pyrrolo[3,4-b]pyridin-2-yl)benzonitrile] | 30 to 100 nM | 0.1 to 10 nM | 0.1 to 10 nM | > 2000 nM
CCNC(=O)[C@H]1CCCN(c2ccn(-c3cc(-c4c(F)cccc4C#N)nc4c3C(=O)NC4)n2)C1 [I-171, (S)-1-(1-(2-(2-cyano-6-fluorophenyl)-5-oxo-6,7-dihydro-5H-pyrrolo[3,4-b]pyridin-4-yl)-1H-pyrazol-3-yl)-N-ethylpiperidine-3-carboxamide] | 100 to 2000 nM | 10 to 100 nM | 0.1 to 10 nM | > 2000 nM
CCNC(=O)[C@@H]1CCCN(c2ccn(-c3cc(-c4c(F)cccc4C#N)nc4c3C(=O)NC4)n2)C1 [I-172, (R)-1-(1-(2-(2-cyano-6-fluorophenyl)-5-oxo-6,7-dihydro-5H-pyrrolo[3,4-b]pyridin-4-yl)-1H-pyrazol-3-yl)-N-ethylpiperidine-3-carboxamide] | 100 to 2000 nM | 10 to 100 nM | 0.1 to 10 nM | > 2000 nM
CO[C@H]1CN(c2ccn(-c3cc(-c4c(F)cccc4C#N)nc4c3C(=O)NC4)n2)CC[C@H]1OC [I-176, 2-(4-(3-((3S,4R)-3,4-dimethoxypiperidin-1-yl)-1H-pyrazol-1-yl)-5-oxo-6,7-dihydro-5H-pyrrolo[3,4-b]pyridin-2-yl)-3-fluorobenzonitrile] | 100 to 2000 nM | 10 to 100 nM | 0.1 to 10 nM | 100 to 2000 nM
CC(=O)Nc1cnn(-c2cc(-c3c(F)cccc3C#N)nc3c2C(=O)NC3)c1 [I-177, N-(1-(2-(2-cyano-6-fluorophenyl)-5-oxo-6,7-dihydro-5H-pyrrolo[3,4-b]pyridin-4-yl)-1H-pyrazol-4-yl)acetamide] | > 2000 nM | ≥ 1000 nM | ≥ 1000 nM | 100 to 2000 nM
N#Cc1cccc(F)c1-c1cc(-n2ccc(N3CCC[C@H](O)[C@H](O)C3)n2)c2c(n1)CNC2=O [I-178, 2-(4-(3-((3R,4S)-3,4-dihydroxyazepan-1-yl)-1H-pyrazol-1-yl)-5-oxo-6,7-dihydro-5H-pyrrolo[3,4-b]pyridin-2-yl)-3-fluorobenzonitrile] | 100 to 2000 nM | 10 to 100 nM | 0.1 to 10 nM | > 2000 nM
N#Cc1cccc(F)c1-c1cc(-n2ccc(N3CCC[C@@H](O)[C@@H](O)C3)n2)c2c(n1)CNC2=O [I-179, 2-(4-(3-((3S,4R)-3,4-dihydroxyazepan-1-yl)-1H-pyrazol-1-yl)-5-oxo-6,7-dihydro-5H-pyrrolo[3,4-b]pyridin-2-yl)-3-fluorobenzonitrile] | 30 to 100 nM | 10 to 100 nM | 0.1 to 10 nM | > 2000 nM
CO[C@H]1CN(c2ccn(-c3cc(-c4c(F)cccc4C#N)nc4c3C(=O)NC4)n2)CC[C@H]1O [I-181, 3-fluoro-2-(4-(3-((3S,4R)-4-hydroxy-3-methoxypiperidin-1-yl)-1H-pyrazol-1-yl)-5-oxo-6,7-dihydro-5H-pyrrolo[3,4-b]pyridin-2-yl)benzonitrile] | 100 to 2000 nM | 10 to 100 nM | 0.1 to 10 nM | 100 to 2000 nM
[2H]C1([2H])C[C@@](O)(C([2H])([2H])[2H])C([2H])([2H])N1c1ccn(-c2cc(-c3c(F)cccc3C#N)nc3c2C(=O)NC3)n1 [I-183, (S)-3-fluoro-2-(4-(3-(3-hydroxy-3-(methyl-d3)pyrrolidin-1-yl-2,2,5,5-d4)-1H-pyrazol-1-yl)-5-oxo-6,7-dihydro-5H-pyrrolo[3,4-b]pyridin-2-yl)benzonitrile] | 30 to 100 nM | 0.1 to 10 nM | 0.1 to 10 nM | 100 to 2000 nM
[2H]C1([2H])C[C@](O)(C([2H])([2H])[2H])C([2H])([2H])N1c1ccn(-c2cc(-c3c(F)cccc3C#N)nc3c2C(=O)NC3)n1 [I-184, (R)-3-fluoro-2-(4-(3-(3-hydroxy-3-(methyl-d3)pyrrolidin-1-yl-2,2,5,5-d4)-1H-pyrazol-1-yl)-5-oxo-6,7-dihydro-5H-pyrrolo[3,4-b]pyridin-2-yl)benzonitrile] | 30 to 100 nM | 0.1 to 10 nM | 0.1 to 10 nM | 100 to 2000 nM
N#Cc1cccc(F)c1-c1cc(-n2cc(F)c(N3CCC(O)C3)n2)c2c(n1)CNC2=O (centres unmarked) [I-185, 3-fluoro-2-(4-(4-fluoro-3-(3-hydroxypyrrolidin-1-yl)-1H-pyrazol-1-yl)-5-oxo-6,7-dihydro-5H-pyrrolo[3,4-b]pyridin-2-yl)benzonitrile] | 100 to 2000 nM | 10 to 100 nM | 0.1 to 10 nM | 100 to 2000 nM
[2H]C1([2H])N(c2ccn(-c3cc(-c4c(F)cccc4C#N)nc4c3C(=O)NC4)n2)C([2H])([2H])C(C)(O)C([2H])([2H])C1([2H])[2H] (centres unmarked) [I-186, 3-fluoro-2-(4-(3-(3-hydroxy-3-methylpiperidin-1-yl-2,2,4,4,5,5,6,6-d8)-1H-pyrazol-1-yl)-5-oxo-6,7-dihydro-5H-pyrrolo[3,4-b]pyridin-2-yl)benzonitrile] | 100 to 2000 nM | 10 to 100 nM | 0.1 to 10 nM | > 2000 nM
N#Cc1cccc(F)c1-c1cc(-n2ccc(N3C[C@H]4CC[C@@H](C3)O4)n2)c2c(n1)CNC2=O [I-188, 2-(4-(3-((1R,5S)-8-oxa-3-azabicyclo[3.2.1]octan-3-yl)-1H-pyrazol-1-yl)-5-oxo-6,7-dihydro-5H-pyrrolo[3,4-b]pyridin-2-yl)-3-fluorobenzonitrile] | 100 to 2000 nM | 0.1 to 10 nM | 0.009 to 0.1 nM | 100 to 2000 nM
N#Cc1cccc(F)c1-c1cc(-n2cc(F)c(N3CC[C@@H](O)C3)n2)c2c(n1)CNC2=O [I-189, (R)-3-fluoro-2-(4-(4-fluoro-3-(3-hydroxypyrrolidin-1-yl)-1H-pyrazol-1-yl)-5-oxo-6,7-dihydro-5H-pyrrolo[3,4-b]pyridin-2-yl)benzonitrile] | 100 to 2000 nM | 10 to 100 nM | 0.1 to 10 nM | > 2000 nM
N#Cc1cccc(F)c1-c1cc(-n2cc(F)c(N3CC[C@H](O)C3)n2)c2c(n1)CNC2=O [I-190, (S)-3-fluoro-2-(4-(4-fluoro-3-(3-hydroxypyrrolidin-1-yl)-1H-pyrazol-1-yl)-5-oxo-6,7-dihydro-5H-pyrrolo[3,4-b]pyridin-2-yl)benzonitrile] | 100 to 2000 nM | 10 to 100 nM | 0.1 to 10 nM | 100 to 2000 nM
N#Cc1cccc(F)c1-c1cc(-n2ccc(N3CCC(O)(C(=O)N4CCCC4)C3)n2)c2c(n1)CNC2=O (centres unmarked) [I-191, 3-fluoro-2-(4-(3-(3-hydroxy-3-(pyrrolidine-1-carbonyl)-pyrrolidin-1-yl)-1H-pyrazol-1-yl)-5-oxo-6,7-dihydro-5H-pyrrolo[3,4-b]pyridin-2-yl)benzonitrile] | 100 to 2000 nM | 0.1 to 10 nM | 0.1 to 10 nM | 100 to 2000 nM

Source: US10781204B2, “TYK2 inhibitors and uses thereof” (Nimbus Lakshmi, Inc., priority 2015, dated 2020)
